The values that follow come from PubChem BioAssay (NCI).

The structures appear in SMILES notation. Where “and” joins values, the source holds several entries; their conditions need not be identical. Identical values can stand only once.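 Five compound concentrations were applied to cells in 96-well plates for 48 hours; endpoints were derived by simple linear interpolation of the resulting dose-response curve. GI50 marks 50% less growth. TGI denotes the concentration required for complete inhibition of growth.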

For this assay, the system named is MDA-MB-468 breast. Briefly: NCI anticancer screen, dose series, 48 h.
`CC(=O)c1c(Nc2ccc(F)c(F)c2F)[nH]c2c(F)cc(F)cc2c1=O`: the GI50 was 261 nM and the TGI stood at 789 nM.

Regarding `Cc1ccc(NCCNCC(O)CO)c2c(=O)c3ccccc3sc12` (stereo not drawn), the GI50 was 1390 nM and the TGI was found to be 2860 nM.

For the molecule `COc1ccc(CNC(=O)c2ccc(-c3cc(-c4nnc(C)o4)ccc3C)cc2)cc1`, the GI50 is 5140 nM and the TGI was determined as 21400 nM.

With `CN(C)CCCNc1c2ccccc2nc2c1oc1ccc(Cl)cc12`, the GI50 is 2760 nM and the TGI came out at 11000 nM.

Take `C#CCn1cc(C=C2C(=O)NC(=S)NC2=O)c2cc(Cl)ccc21`: the GI50 is 2060 nM and the TGI worked out at 5080 nM.

In the case of `O=C1c2cc3c(cc2-c2c1c1cc(F)c(F)cc1c(=O)n2C[C@H](O)CO)OCO3`, the GI50 was 37.9 nM and the TGI was found to be 206 nM.

`COc1cc(/C=C2\C(=O)Nc3ccc(Br)cc32)cc(OC)c1OC`: the GI50 was 3290 nM and the TGI was more than 100000 nM.

Turning to `Cc1cc(Nc2cc(N3CCN(C)CC3)nc(C#Cc3ccccc3)n2)n[nH]1`, the GI50 was 1670 nM and the TGI worked out at 6530 nM.

Turning to `CC[C@H](C)[C@H](NC(=O)N[C@@H](C)c1ccccc1)C(=O)N(C)[C@H](C[C@@H](OC(C)=O)c1nc(C(=O)N[C@@H](Cc2ccccc2)C[C@H](C)C(=O)OC)cs1)C(C)C`, the GI50 was 3600 nM and the TGI is 24900 nM.

As for `CCCCCCCCCCCCCCCCCCNC(=O)[C@H]1CSC(c2ccc(F)c(OC)c2)N1` (stereo partly drawn), the GI50 is 1840 nM and the TGI was more than 50000 nM.

`Cc1nc2cc(Nc3nc(Nc4ccc(F)cc4)nc(-c4ccc(Cl)cc4)n3)ccc2n1Cc1ccccc1`: the GI50 was 4940 nM and the TGI was determined as 88000 nM.

Take `Cc1ccc2c(C(C[N+](=O)[O-])c3ccco3)c(-c3ccccc3)[nH]c2c1` (stereo not drawn): the GI50 was 7260 nM and the TGI was 71200 nM.

Consider `COc1ccc(-c2nn(-c3cccc(Cl)c3)cc2/C=C2\C(=N)N(c3ccccc3)N=C2N)cc1`, for which the GI50 is 4150 nM and the TGI worked out at 45800 nM.

Consider `CCOC(=O)C(=Cc1c(-c2ccccc2)[nH]c2ccccc12)C(=O)OCC`, for which the GI50 was 3100 nM and the TGI was 15400 nM.

With `O=C(Nc1nc2ccc(F)cc2s1)c1cccnc1Nc1ccc(Cl)cc1Cl`, the GI50 was 786 nM and the TGI was 20200 nM.

Consider `Oc1ccc(CSc2nnc(-c3ccc(Oc4ccccc4)cc3)n2-c2ccccc2)c2cccnc12`, for which the GI50 was 180 nM and the TGI was 6810 nM.

With `COc1ccc(-c2conc2-c2ccccc2)cc1`, the GI50 is 225 nM and the TGI is more than 100000 nM.

For `Cc1cc([C@H](C)Nc2nccc(N3C(=O)OC[C@@H]3[C@H](C)F)n2)ncc1-c1ccnc(C(F)(F)F)c1`, the GI50 was 9500 nM and the TGI is 79600 nM.

Take `CCCCCCCCCCCCNC(=O)[C@H]1CSC(c2ccsc2)N1` (stereo partly drawn): the GI50 is 846 nM and the TGI came out at 1630 nM.

As to `CC(=O)OC1Oc2cc(C)c(C)cc2-c2oc(=O)c(-c3ccccc3)cc21` (stereo not drawn), the GI50 is 796 nM and the TGI is 43900 nM.

For `Fc1ccc(-c2cc(-c3cn[nH]c3-c3ccccn3)ccn2)cc1`, the GI50 is more than 25000 nM and the TGI was more than 25000 nM.

In the case of `CCn1c(-c2nonc2N)nc2c(C#CC(C)(C)O)ncc(OC[C@@H]3CCCN3)c21`, the GI50 is 232 nM and the TGI worked out at 7190 nM.

For the molecule `NCCNc1nc2ccccc2c2c(=O)c3cc(F)cc(Cl)c3sc12`, the GI50 was 1730 nM and the TGI was determined as 3440 nM.

Consider `CCc1ccc(OCc2ccccc2C(=O)Nc2ccc3nc(C)cc(N)c3c2)cc1`, for which the GI50 was 1260 nM and the TGI amounted to 2800 nM.

As to `COc1ccc(-c2nn3ncccc3c2-c2ccnc(Nc3cccc(C(F)(F)F)c3)n2)cc1`, the GI50 was 4620 nM and the TGI is 14100 nM.

For `NC1(C(=O)O)CSSC1`, the GI50 is 2100 nM and the TGI was 7890 nM.

Regarding `N#Cc1c(-c2ccc(Cl)cc2)csc1NC(=O)Nc1cccc(C(F)(F)F)c1`, the GI50 was 2180 nM and the TGI was determined as 8270 nM.

In the case of `COc1ccc2nc3cc(Cl)ccc3c(Nc3ccc(O)c(CN4CCCC4)c3)c2c1`, the GI50 is 1850 nM and the TGI was determined as 3650 nM.

Take `CC(=O)Nc1ccc2c(c1)CN1C(=O)c3ccccc3C1=N2`: the GI50 was more than 100000 nM and the TGI is more than 100000 nM.

As for `O=C(Nc1cccc(Cl)c1)c1cc(Cl)ccc1O`, the GI50 was 1750 nM and the TGI amounted to 7230 nM.

For the molecule `Oc1cccc(-c2nc(N3CCOCC3)c3oc4ncccc4c3n2)c1`, the GI50 is 576 nM and 375 nM; the TGI was 2370 nM and 2150 nM.

Regarding `CN1CCN(CCCOc2ccc3ncnc(Nc4ccc(Oc5cccc(F)c5)c(Cl)c4)c3c2)CC1`, the GI50 was 1060 nM and the TGI came to 2530 nM.

`N#CC1=C(N)Oc2c(sc3c(Br)cccc23)C1c1ccc(F)cc1` (stereo not drawn): the GI50 is 333 nM and the TGI came to 6410 nM.

For `NC(=O)c1cc(-c2ccc3ncnc(N4CCc5cc(F)c(Cl)cc54)c3c2)cnc1N`, the GI50 was 397 nM and the TGI came to 2040 nM.

With `COc1cccc(C2CC(=O)Nc3cc4c(cc32)CCC4)c1OC` (stereo not drawn), the GI50 is 1830 nM and the TGI is 5450 nM.

Regarding `COC12C=C/C(=C(/C(=O)OCc3csc(SC)n3)C(=O)CCCCCCCCC3(OC)C=C/C(=C(/C(=O)OCc4cnc(SC)s4)C(=O)CCCCCCCC1)O3)O2` (stereo not drawn), the GI50 is 3560 nM and the TGI was 61300 nM.

Consider `O=c1c2ccccc2c(=O)c2c1sc1c(=O)c3ccc(O)cc3c(=O)c12`, for which the GI50 is 1520 nM and the TGI was 4000 nM.

Regarding `NC(=O)c1c(NC(=O)c2cccc(C(F)(F)F)c2)sc2c1CCC(=O)C2`, the GI50 is 348 nM and the TGI worked out at 2900 nM.

As to `Cc1cc(C(=O)Nc2cc(Nc3ncccc3-c3ncnc4nc[nH]c34)ccc2F)cc(C(C)(C)C#N)c1`, the GI50 is 10300 nM and the TGI was more than 100000 nM.

In the case of `Cc1cc2c(-c3nc4ccccn4c3NC34CC5CC(CC(C5)C3)C4)c(O)c(O)cc2c(O)c1-c1c(C)cc2c(-c3nc4ccccn4c3NC34CC5CC(CC(C5)C3)C4)c(O)c(O)cc2c1O`, the GI50 is 143 nM and the TGI came to 1570 nM.

For `COc1ccccc1-c1nccc(COc2ccccc2C[C@@H](Oc2ncnc3sc(-c4ccc(F)cc4)c(-c4ccc(OCCN5CCN(C)CC5)c(Cl)c4C)c23)C(=O)O)n1`, the GI50 is less than 10 nM and the TGI was 12.1 nM.

Consider `Cc1ccc(S(=O)c2ccc([N+](=O)[O-])c3nonc23)cc1` (stereo not drawn), for which the GI50 was 1750 nM and the TGI turned out to be 3650 nM.

As for `COc1ccc(-c2nn(-c3cccc(Cl)c3)cc2-c2cc(-c3cccs3)no2)cc1`, the GI50 is 2680 nM and the TGI was determined as 12300 nM.

Turning to `O=C1c2c(O)ccc(O)c2C(=O)c2c(NCCNCCO)ccc(NCCNCCO)c21`, the GI50 was 83.5 nM and the TGI was found to be 346 nM.
